Reference: publication PMC5430599, “Antiplasmodial dihetarylthioethers target the coenzyme A synthesis pathway in Plasmodium falciparum erythrocytic stages” (Malaria Journal, 2017)
Where two headings read alike, the source gives them in different places.

Experiments:
[1] = tested on: Plasmodium falciparum; set-up: method as in PMID 27855724; details: addition of pantethine; cited from earlier work
[2] = tested on: human embryonic kidney (HEK-293) cells; assay: Cytotoxicity assay: human HEK-293 cell line (resazurin); assay type: cell-based; details: Homo sapiens, read-out: IC50 [µM], HEK-293
Protocol: Cytotoxicity against human embryonic kidney (HEK-293) cells was assessed as previously described. […] Cells were detached using Accutase treatment, then seeded into black clear-bottom 384-wells fluorescence microplates (Greiner), at a cell density of 44,000 cells/mL in 45 µL/well, using a Benchtop liquid dispenser (Thermo Fisher Multidrop). After seeding, the cells were brought back to the incubator and allowed to settle and reattach overnight. […] Plates were incubated at the standard condition above for 72 h. At the end of the incubation the medium in each well was replaced with 1 mM resazurin, and the plates were read using a multilabel microplate reader (PerkinElmer Envision) at 530 nm excitation and 595 nm emission wavelengths after a further 6 h incubation. Inhibition data was generated using Office Excel 2013 (Microsoft). IC50 values were calculated by fitting a four-parameter nonlinear regression model using Prism v.6.0 (Graphpad Software Inc., La Jolla, CA, USA).

[3] = tested on: Plasmodium falciparum parasites (3D7 strain); assay: Coenzyme A rescue assay (imaging-based growth inhibition, with or without 0.8 mM CoA); assay type: cell-based; details: for rescue by coenzyme A supplementation (in words): 0.8 mM CoA; for IC50 shift with CoA supplementation: IC50 CoA / IC50 solvent; for IC50-ratio (CoA/solvent): IC50 with 0.8 mM CoA / IC50 solvent, threshold 5× significant; for IC50: Plasmodium falciparum, 3D7, 72 h
Protocol: Plasmodium falciparum parasites (3D7 strain) were grown in RPMI 1640 supplemented with 25 mM HEPES, 5 mg/mL Albumax II, and 0.37 mM hypoxanthine. Parasites were subjected to two rounds of sorbitol synchronization before undergoing compound treatment. Ring stage parasites were exposed to the experimental compounds alone, or in combination with 0.8 mM coenzyme A (CoA) in 384-wells imaging microplates (CellCarrier, PerkinElmer), as previously described. […] Puromycin 5 µM and untreated solvent were used as in-plate positive and negative controls, respectively. Samples were dissolved in DMSO to a final assay DMSO concentration of 0.4%. […] All sample and control wells contained the same final amounts of solvents. Plates were incubated for 72 h at 90% N2, 5% CO2, 5% O2, then parasites were stained with 2-(4-amidinophenyl)-1H-indole-6-carboxamidine (DAPI), and imaged using an Opera QEHS micro-plate confocal imaging system (PerkinElmer) with 405 nm excitation and 450/50 emission filter, using a 20× water immersion objective. Images were analysed as previously described, to obtain normalized % inhibition data, which were then used to calculate IC50 values, through a four parameter logistic curve fitting in GraphPad Prism v.6. The experiment was carried out in two independent biological replicates, each consisting of two technical replicates. Dose–response curves are illustrated in the Additional file 4.

[4] = tested on: asexual erythrocytic stages of transgenic NF54-luc P. falciparum; assay: Luciferase-based viability screening for anti-malarial activity; assay type: cell-based, Plasmodium falciparum; details: for % inhibition, PfNF54-Luc at 3 µM: 48 h; for % inhibition, PfNF54-Luc at 3 µM / inhibition at 3 µM: >50% inhibition of viability rated active; for inhibition at 3 µM: read-out: % inhibition, PfNF54-Luc at 3 µM, 3 µM, 48 h
Protocol: Asexual erythrocytic stages of transgenic NF54-luc P. falciparum were used for the luciferase-based viability assay. These parasites constitutively express high levels of luciferase. The parasites were cultured as described previously. Parasite culture with parasitaemia of 0.5–1% was dispensed in triplicate into white 96-well flat-bottom plates (each well contains 250 µL) (NUNC, Roskilde, […], 90% N2, 5% CO2, and 5% O2). 0.01% DMSO was included in the untreated infected RBC cultures as negative control, since the compounds stock initially was diluted in DMSO and each treatment well also contained 0.01% DMSO. Subsequently, 100 µL RPMI1640 media was removed from each well and a 100 µL volume of the Bright-Glo® substrate solution added to each well. The resultant cleavage product of the reaction, light, was measured using a FLUOROSKAN FL luminometer (Thermo), to ascertain viable parasites. Untreated cultures were used as negative controls and to calculate the inhibition rate (0% inhibition of parasite growth). Blasticidin (Sigma-Aldrich, St. Louis, MO, USA), used for selection of transfected parasites, was included as a positive control on each plate and gave >90% inhibition of parasite growth at concentration 2 µg/mL. Compounds with >50% inhibition of viability were rated as actives. Experiments were performed in triplicate and were repeated at least twice.

[5] = tested on: Plasmodium berghei; set-up: method as in PMID 24900512; details: 50 mg/kg subcutaneously over 4 days; cited from earlier work
[6] = 0.8 mM CoA (rescue), 72 h, read-out: IC50 [µM], Pf3D7 + 0.8 mM CoA
[7] = no CoA (solvent, non-rescue), 72 h, read-out: IC50 [µM], Pf3D7 + solvent
[8] = Plasmodium falciparum, NF54, 48 h

Cc1csc(Sc2ncnc3sccc23)n1 [Amb180780, reference compound]
rescue of activity by pantethine, dephospho CoA and CoA [1]: more than 75%
IC50 ([2]; HEK293, cytotoxicity, 72 h): > 40 µM
rescue by coenzyme A supplementation (in words) [3]: rescued
IC50 shift with CoA supplementation [3]: > 13 fold
IC50-ratio (CoA/solvent) [3]: 40.8
IC50 [3, 6]: 1.51 ± 0.19 µM
IC50 [3, 7]: 0.037 ± 0.0017 µM

C[C@@H]1CC[C@H]2[C@@H](C)C(=O)O[C@@H]3O[C@@]4(C)CC[C@@H]1[C@]32OO4 [Artemis, artemisinin, reference compound]
rescue by coenzyme A supplementation (in words) [3]: not rescued
IC50 [3, 6]: 0.0049 ± 0.0011 µM
IC50 [3, 7]: 0.00337 ± 0.00065 µM

CN(CC[C@H](N)CC(=O)N[C@H]1C=C[C@H](n2ccc(N)nc2=O)O[C@@H]1C(=O)O)C(=N)N [BS, Blasticidin, reference compound]
inhibition of parasite growth (positive control) ([4]; 2 µg/mL): > 90%
% inhibition, PfNF54-Luc at 3 µM [4]: 99.3 ± 0.7%

CCN(CC)CCCC(C)Nc1ccnc2cc(Cl)ccc12 (stereo not shown) [Chloroqu, Chloroquine, reference compound]
IC50 ([2]; HEK293, 72 h): > 40 µM
rescue by coenzyme A supplementation (in words) [3]: not rescued
IC50-ratio (CoA/solvent) [3]: 1.39
IC50 ([3]; read-out: IC50 [µM], Pf3D7 + 0.8 mM CoA): 0.0271 ± 0.0094 µM
IC50 ([3]; read-out: IC50 [µM], Pf3D7 + solvent): 0.0195 ± 0.0034 µM

COc1ccc(-c2nnc(Sc3ncnc4sccc34)o2)cc1 [Compound 3c]
inhibition at 30 µM ([4]; Plasmodium falciparum, NF54, 48 h, read-out: % inhibition, PfNF54-Luc at 30 µM, 30 µM, 48 h): < 50%

CCN(CC)S(=O)(=O)c1ccc(-c2nnc(Sc3ncnc4sccc34)o2)cc1 [Compound 3d]
inhibition at 3 µM [4, 8]: -0.6 ± 5.4%

O=S(=O)(c1ccc(-c2nnc(Sc3ncnc4sccc34)o2)cc1)N1CCCCC1 [Compound 3e]
inhibition at 3 µM [4, 8]: -7.3 ± 6.9%

Clc1ccccc1-c1nnc(Sc2ncnc3sccc23)o1 [Compound 3f]
inhibition at 3 µM [4, 8]: 1.5 ± 4.3%

Brc1ccccc1-c1nnc(Sc2ncnc3sccc23)o1 [Compound 3g]
inhibition at 3 µM [4, 8]: -13.1 ± 9.1%

CC1CCc2sc(-c3nnc(Sc4ncnc5sccc45)o3)cc2C1 (stereo not shown) [Compound 3h]
inhibition at 3 µM [4, 8]: -103 ± 4.4%

c1cncc(-c2nnc(Sc3ncnc4sccc34)o2)c1 [Compound 3i]
inhibition at 3 µM [4, 8]: -5.5 ± 3.8%

Cc1ccc(-c2nnc(Sc3ncnc4sccc34)o2)cc1 [Compound 3j]
inhibition at 3 µM [4, 8]: -11 ± 6.7%

CCc1ccc(-c2nnc(Sc3ncnc4sccc34)o2)cc1 [Compound 3k]
inhibition at 3 µM [4, 8]: -7 ± 1.8%

O=S(=O)(c1ccc(-c2nnc(Sc3ncnc4sccc34)o2)cc1)N1CCOCC1 [Compound 3l]
inhibition at 3 µM [4, 8]: 24.3 ± 3.2%

Fc1ccc(-c2nnc(Sc3ncnc4sccc34)o2)cc1 [Compound 3m]
inhibition at 3 µM [4, 8]: -8.3 ± 4.1%

CC(C)(C)OC(=O)N1CCC(c2nnc(Sc3ncnc4sccc34)o2)CC1 [Compound 3n]
inhibition at 3 µM [4, 8]: -0.82 ± 3.11%

CC(C)(C)OC(=O)NCc1nnc(Sc2ncnc3sccc23)o1 [Compound 3o]
inhibition at 3 µM [4, 8]: 2.28 ± 3.31%

CC(C)(C)c1nnc(Sc2ncnc3sccc23)o1 [Compound 3p]
inhibition at 3 µM [4, 8]: -14.6 ± 12.9%

OCc1nnc(Sc2ncnc3sccc23)o1 [Compound 3q]
inhibition at 3 µM [4, 8]: -12.3 ± 2.2%

c1nc(Sc2nnc(C3CCNCC3)o2)c2ccsc2n1 [Compound 3r]
inhibition at 3 µM [4, 8]: 7.7 ± 1.8%

NCc1nnc(Sc2ncnc3sccc23)o1 [Compound 3s]
inhibition at 3 µM [4, 8]: -2.8 ± 16.6%

c1coc(-c2nnc(Sc3ncnc4[nH]ccc34)o2)c1 [Compound 6a]
inhibition at 3 µM [4, 8]: -24.8 ± 13.6%

c1coc(-c2nnc(Sc3ncnc4[nH]cnc34)o2)c1 [Compound 6b]
inhibition at 3 µM [4, 8]: 1.79 ± 2.53%

N#Cc1nccnc1Sc1nnc(-c2ccco2)o1 [Compound 6c]
inhibition at 3 µM [4, 8]: 0.98 ± 1.52%

c1coc(-c2nc(Sc3ncnc4sccc34)n[nH]2)c1 [Compound 8a]
IC50 ([2]; HEK293, cytotoxicity, 72 h): > 40 µM
IC50 [3, 6]: 16.1 ± 2.2 µM
IC50 [3, 7]: 10.5 ± 1.1 µM
% inhibition, PfNF54-Luc at 3 µM [4]: 33.2 ± 6.8%
inhibition at 3 µM [4, 8]: 33%

Cn1cnnc1Sc1ncnc2sccc12 [Compound 8b]
IC50 ([2]; HEK293, cytotoxicity, 72 h): > 40 µM
rescue by coenzyme A supplementation (in words) [3]: significantly rescued
IC50 shift with CoA supplementation [3]: sevenfold
IC50-ratio (CoA/solvent) [3]: 7.39
IC50 [3, 6]: ~40 µM
IC50 [3, 7]: 6.4 ± 4.3 µM
% inhibition, PfNF54-Luc at 3 µM [4]: inactive
inhibition at 3 µM [4, 8]: 4.7 ± 2.6%

Cc1ccc2nc(Sc3ncnc4sccc34)[nH]c2c1 [Compound 8h]
% inhibition, PfNF54-Luc at 3 µM [4]: inactive
inhibition at 3 µM [4, 8]: -1.9 ± 5.3%

Clc1ccc2[nH]c(Sc3ncnc4sccc34)nc2c1 [Compound 8i]
% inhibition, PfNF54-Luc at 3 µM [4]: inactive
inhibition at 3 µM [4, 8]: -18.4 ± 10.6%

COc1ccc2[nH]c(Sc3ncnc4sccc34)nc2c1 [Compound 8j]
% inhibition, PfNF54-Luc at 3 µM [4]: inactive
inhibition at 3 µM [4, 8]: -36.3 ± 10.6%

CC(C)(CO)C(O)C(=O)NCCCO (stereo not shown) [Pantoth, panthenol, reference compound]
rescue by coenzyme A supplementation (in words) [3]: rescued
IC50 [3, 7]: 752 ± 82 µM

COc1ccc(C[C@H](N)C(=O)N[C@H]2[C@@H](O)[C@H](n3cnc4c(N(C)C)ncnc43)O[C@@H]2CO)cc1 [Puromyc, puromycin, reference compound]
IC50 ([2]; HEK293, cytotoxicity, 72 h): 0.36 µM
rescue by coenzyme A supplementation (in words) [3]: not rescued
IC50-ratio (CoA/solvent) [3]: 2.78
IC50 [3, 6]: 0.0939 ± 0.0016 µM

c1ccn2c(Sc3ncnc4sccc34)nnc2c1 [compound 33]
drop in parasitaemia [5]: 34%
life-span of infected animals [5]: failed to prolong the life-span
